{
  "source": "PubChem BioAssay (NCI)",
  "assay_in_all_cases": "DTP human tumour cell line panel, 48 h",
  "key": {"[1]": {"tested_on": "HT29 colon"}, "[2]": {"tested_on": "SNB-75 CNS"}, "[3]": {"tested_on": "HS 578T breast"}, "[4]": {"tested_on": "UACC-257 melanoma"}, "[5]": {"tested_on": "HCC-2998 colon"}, "[6]": {"tested_on": "SK-MEL-5 melanoma"}, "[7]": {"tested_on": "CAKI-1 renal"}, "[8]": {"tested_on": "MDA-MB-468 breast"}, "[9]": {"tested_on": "MOLT-4 leukemia"}, "[10]": {"tested_on": "SW-620 colon"}, "[11]": {"tested_on": "SK-MEL-28 melanoma"}, "[12]": {"tested_on": "MALME-3M melanoma"}, "[13]": {"tested_on": "TK-10 renal"}, "[14]": {"tested_on": "HCT-15 colon"}, "[15]": {"tested_on": "DU-145 prostate"}, "[16]": {"tested_on": "HOP-92 NSCLC"}, "[17]": {"tested_on": "MDA-MB-231 breast"}, "[18]": {"tested_on": "PC-3 prostate"}, "[19]": {"tested_on": "M14 melanoma"}, "[20]": {"tested_on": "MCF7 breast"}, "[21]": {"tested_on": "NCI-H226 lung"}, "[22]": {"tested_on": "HL-60(TB) leukemia"}, "[23]": {"tested_on": "RXF 393 renal"}, "[24]": {"tested_on": "KM12 colon"}, "[25]": {"tested_on": "OVCAR-5 ovarian"}, "[26]": {"tested_on": "SK-MEL-2 melanoma"}, "[27]": {"tested_on": "SF-539 CNS"}, "[28]": {"tested_on": "NCI/ADR-RES ovarian"}, "[29]": {"tested_on": "A549 NSCLC"}, "[30]": {"tested_on": "UO-31 renal"}, "[31]": {"tested_on": "MDA-MB-435"}, "[32]": {"tested_on": "K-562 leukemia"}, "[33]": {"tested_on": "NCI-H23 lung"}, "[34]": {"tested_on": "RPMI-8226 leukemia"}, "[35]": {"tested_on": "CCRF-CEM leukemia"}, "[36]": {"tested_on": "EKVX NSCLC"}, "[37]": {"tested_on": "SN12C renal"}, "[38]": {"tested_on": "NCI-H522 lung"}, "[39]": {"tested_on": "SNB-19 CNS"}, "[40]": {"tested_on": "BT-549 breast"}, "[41]": {"tested_on": "NCI-H460 lung"}, "[42]": {"tested_on": "IGROV1 ovarian"}, "[43]": {"tested_on": "HOP-62 NSCLC"}, "[44]": {"tested_on": "OVCAR-3 ovarian"}, "[45]": {"tested_on": "UACC-62 melanoma"}, "[46]": {"tested_on": "A498 renal"}, "[47]": {"tested_on": "OVCAR-4 ovarian"}, "[48]": {"tested_on": "SR leukemia"}},
  "note": "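Five concentrations, 48 hours, 96-well plates. Here, GI50 denotes the concentration required for 50% inhibition of growth. TGI: concentration producing complete growth inhibition.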",
  "data": [
    {"smiles": "CN1CCN(c2ccc(Nc3nc(N4CCN(S(=O)(=O)c5ccc(F)cc5)CC4)c4sccc4n3)cc2)CC1", "values": [
      {"measurement": "GI50", "setting": "[1]", "result": 1.83, "unit": "µM"},
      {"measurement": "TGI", "setting": "[1]", "result": 3.6, "unit": "µM"},
      {"measurement": "GI50", "setting": "[2]", "result": 11, "unit": "µM"},
      {"measurement": "TGI", "setting": "[2]", "result": 26.8, "unit": "µM"},
      {"measurement": "GI50", "setting": "[3]", "result": 17.8, "unit": "µM"},
      {"measurement": "TGI", "setting": "[3]", "result": 55.4, "unit": "µM"},
      {"measurement": "GI50", "setting": "[4]", "result": 1.58, "unit": "µM"},
      {"measurement": "TGI", "setting": "[4]", "result": 3.19, "unit": "µM"},
      {"measurement": "GI50", "setting": "[5]", "result": 1.69, "unit": "µM"},
      {"measurement": "TGI", "setting": "[5]", "result": 3.23, "unit": "µM"},
      {"measurement": "GI50", "setting": "[6]", "result": 1.68, "unit": "µM"},
      {"measurement": "TGI", "setting": "[6]", "result": 3.05, "unit": "µM"},
      {"measurement": "GI50", "setting": "[7]", "result": 2.98, "unit": "µM"},
      {"measurement": "TGI", "setting": "[7]", "result": 10.1, "unit": "µM"},
      {"measurement": "GI50", "setting": "[8]", "result": 1.5, "unit": "µM"},
      {"measurement": "TGI", "setting": "[8]", "result": 2.89, "unit": "µM"},
      {"measurement": "GI50", "setting": "[9]", "result": 2.45, "unit": "µM"},
      {"measurement": "TGI", "setting": "[9]", "result": 6.05, "unit": "µM"},
      {"measurement": "GI50", "setting": "[10]", "result": 1.8, "unit": "µM"},
      {"measurement": "TGI", "setting": "[10]", "result": 3.33, "unit": "µM"},
      {"measurement": "GI50", "setting": "[11]", "result": 1.68, "unit": "µM"},
      {"measurement": "TGI", "setting": "[11]", "result": 3.15, "unit": "µM"},
      {"measurement": "GI50", "setting": "[12]", "result": 1.72, "unit": "µM"},
      {"measurement": "TGI", "setting": "[12]", "result": 3.15, "unit": "µM"},
      {"measurement": "GI50", "setting": "[13]", "result": 2.61, "unit": "µM"},
      {"measurement": "TGI", "setting": "[13]", "result": 7.37, "unit": "µM"},
      {"measurement": "GI50", "setting": "[14]", "result": 1.67, "unit": "µM"},
      {"measurement": "TGI", "setting": "[14]", "result": 3.15, "unit": "µM"},
      {"measurement": "GI50", "setting": "[15]", "result": 1.97, "unit": "µM"},
      {"measurement": "TGI", "setting": "[15]", "result": 3.76, "unit": "µM"},
      {"measurement": "GI50", "setting": "[16]", "result": 7.3, "unit": "µM"},
      {"measurement": "TGI", "setting": "[16]", "result": 24.1, "unit": "µM"},
      {"measurement": "GI50", "setting": "[17]", "result": 1.9, "unit": "µM"},
      {"measurement": "TGI", "setting": "[17]", "result": 3.4, "unit": "µM"},
      {"measurement": "GI50", "setting": "[18]", "result": 2.13, "unit": "µM"},
      {"measurement": "TGI", "setting": "[18]", "result": 5.11, "unit": "µM"},
      {"measurement": "GI50", "setting": "[19]", "result": 1.84, "unit": "µM"},
      {"measurement": "TGI", "setting": "[19]", "result": 3.56, "unit": "µM"},
      {"measurement": "GI50", "setting": "[20]", "result": 1.66, "unit": "µM"},
      {"measurement": "TGI", "setting": "[20]", "result": 3.18, "unit": "µM"},
      {"measurement": "GI50", "setting": "[21]", "result": 18.7, "unit": "µM"},
      {"measurement": "TGI", "setting": "[21]", "result": 48.2, "unit": "µM"},
      {"measurement": "GI50", "setting": "[22]", "result": 2.07, "unit": "µM"},
      {"measurement": "TGI", "setting": "[22]", "result": 4.25, "unit": "µM"},
      {"measurement": "GI50", "setting": "[23]", "result": 1.61, "unit": "µM"},
      {"measurement": "TGI", "setting": "[23]", "result": 3.14, "unit": "µM"},
      {"measurement": "GI50", "setting": "[24]", "result": 2.02, "unit": "µM"},
      {"measurement": "TGI", "setting": "[24]", "result": 3.97, "unit": "µM"},
      {"measurement": "GI50", "setting": "[25]", "result": 2.36, "unit": "µM"},
      {"measurement": "TGI", "setting": "[25]", "result": 5.94, "unit": "µM"},
      {"measurement": "GI50", "setting": "[26]", "result": 19.7, "unit": "µM"},
      {"measurement": "TGI", "setting": "[26]", "result": 39.2, "unit": "µM"},
      {"measurement": "GI50", "setting": "[27]", "result": 1.75, "unit": "µM"},
      {"measurement": "TGI", "setting": "[27]", "result": 3.18, "unit": "µM"},
      {"measurement": "GI50", "setting": "[28]", "result": 2, "unit": "µM"},
      {"measurement": "TGI", "setting": "[28]", "result": 4.42, "unit": "µM"},
      {"measurement": "GI50", "setting": "[29]", "result": 1.87, "unit": "µM"},
      {"measurement": "TGI", "setting": "[29]", "result": 4.44, "unit": "µM"},
      {"measurement": "GI50", "setting": "[30]", "result": 13.4, "unit": "µM"},
      {"measurement": "TGI", "setting": "[30]", "result": 29.1, "unit": "µM"},
      {"measurement": "GI50", "setting": "[31]", "result": 1.77, "unit": "µM"},
      {"measurement": "TGI", "setting": "[31]", "result": 3.26, "unit": "µM"},
      {"measurement": "GI50", "setting": "[32]", "result": 2.13, "unit": "µM"},
      {"measurement": "TGI", "setting": "[32]", "result": 5.73, "unit": "µM"},
      {"measurement": "GI50", "setting": "[33]", "result": 4.35, "unit": "µM"},
      {"measurement": "TGI", "setting": "[33]", "result": 18.1, "unit": "µM"},
      {"measurement": "GI50", "setting": "[34]", "result": 2.28, "unit": "µM"},
      {"measurement": "TGI", "setting": "[34]", "result": 4.98, "unit": "µM"},
      {"measurement": "GI50", "setting": "[35]", "result": 2.39, "unit": "µM"},
      {"measurement": "TGI", "setting": "[35]", "result": 6.78, "unit": "µM"},
      {"measurement": "GI50", "setting": "[36]", "result": 3.95, "unit": "µM"},
      {"measurement": "TGI", "setting": "[36]", "result": 22.9, "unit": "µM"},
      {"measurement": "GI50", "setting": "[37]", "result": 1.73, "unit": "µM"},
      {"measurement": "TGI", "setting": "[37]", "result": 3.25, "unit": "µM"},
      {"measurement": "GI50", "setting": "[38]", "result": 1.64, "unit": "µM"},
      {"measurement": "TGI", "setting": "[38]", "result": 3.12, "unit": "µM"},
      {"measurement": "GI50", "setting": "[39]", "result": 2.64, "unit": "µM"},
      {"measurement": "TGI", "setting": "[39]", "result": 8.71, "unit": "µM"},
      {"measurement": "GI50", "setting": "[40]", "result": 17.8, "unit": "µM"},
      {"measurement": "TGI", "setting": "[40]", "result": 53.1, "unit": "µM"},
      {"measurement": "GI50", "setting": "[41]", "result": 1.86, "unit": "µM"},
      {"measurement": "TGI", "setting": "[41]", "result": 3.45, "unit": "µM"},
      {"measurement": "GI50", "setting": "[42]", "result": 2.19, "unit": "µM"},
      {"measurement": "TGI", "setting": "[42]", "result": 4.74, "unit": "µM"},
      {"measurement": "GI50", "setting": "[43]", "result": 11.5, "unit": "µM"},
      {"measurement": "TGI", "setting": "[43]", "result": "> 100", "unit": "µM"},
      {"measurement": "GI50", "setting": "[44]", "result": 1.91, "unit": "µM"},
      {"measurement": "TGI", "setting": "[44]", "result": 3.51, "unit": "µM"},
      {"measurement": "GI50", "setting": "[45]", "result": 1.71, "unit": "µM"},
      {"measurement": "TGI", "setting": "[45]", "result": 3.15, "unit": "µM"},
      {"measurement": "GI50", "setting": "[46]", "result": 19.2, "unit": "µM"},
      {"measurement": "TGI", "setting": "[46]", "result": 34.5, "unit": "µM"},
      {"measurement": "GI50", "setting": "[47]", "result": 2, "unit": "µM"},
      {"measurement": "TGI", "setting": "[47]", "result": 4.2, "unit": "µM"},
      {"measurement": "GI50", "setting": "[48]", "result": 2.01, "unit": "µM"},
      {"measurement": "TGI", "setting": "[48]", "result": 4.85, "unit": "µM"}
    ]}
  ]
}
